Laboratory results published in US12416052B2, “Capturing, concentrating, and detecting microbes in a sample using magnetic ionic liquids and recombinase polymerase amplification” (priority 2019, dated 2025).

Assays:
Test in all cases: MIL-based whole-cell extraction
E. coli O157:H7 N336-4-1 = test system: E. coli O157:H7 N336-4-1; design: species or system Escherichia coli; conditions: 1×10^6 CFU mL^−1 in TSB, 15 μL MIL
Description: (§1) A universal schematic for MIL-based cell extraction is depicted in FIG. 7B. A 1 mL volume of diluted cell suspension was added to a flat-bottomed 4-mL screw cap glass vial. Fifteen microliters of either the Ni(II) or Dy(III) MIL was added and dispersed into microdroplets by vortex agitation for 30 s. The aqueous phase was decanted following dispersive extraction, and the MIL was subjected to a brief wash step using 1 mL of nuclease-free water (Integrated DNA Technologies, Coralville, IA, USA) to ensure adequate removal of loosely or incidentally bound cells. After washing, release of viable cells from the MIL extraction phase was carried out using a “back-extraction” step accomplished through addition of 1 mL of an ionically-rich nutritive medium comprised of 20 g L^−1 tryptone and 10 g L^−1 NaCl, followed by a 120 s vortex step. After back-extraction, aliquots of the cell-enriched back-extraction medium were enumerated using the track dilution method using 100×100 mm square, gridded TSA, BSA, CA or VRBGA plates.
(§2) Following back-extraction, aliquots of the cell-enriched back-extraction medium were serially diluted in 0.1% peptone water and a 10 μL aliquot of each dilution was applied to a separate lane on square plates containing an appropriate agar medium. The plates were then tilted at an approximately 80° angle for 15 min to allow the droplets to travel toward the opposite end of the plate. The plates were incubated for 24 h at 37° C. (TSA, VRBGA), for 48 h at 37° C. (BSA) or for 24 h at 37° C. (CA). Colonies were counted and colony forming units (CFU) were determined. The enrichment factor (EF) for MIL-based extraction was calculated using Equation 1, where CMIL represents the concentration of bacteria in suspension following extraction using the MIL and CS is the initial concentration of bacteria in the sample.
(§3) In order to explore the broader utility of our approach, evaluation of additional cell types is needed. We began this extended evaluation of the Ni(II) MIL with seven representative DNA subgroups of Salmonella and eight strains of E. coli O157:H7. Briefly, a 1 mL aliquot of TSB was inoculated with 1×10^6 CFU mL^−1 of bacteria, and spiked with 15 μL of the Ni(II) MIL. MIL-based extraction was performed and 10 μL aliquots of the back-extraction solution were enumerated using TSA and BSA plates (Salmonella) or TSA plates (E. coli O157:H7). […] We later determined that VRBGA was a suitable common medium for this purpose and used this in our statistical analysis. Average CFU counts were compared to standards that were not exposed to the Ni(II) MIL. Enrichment factors were calculated for Salmonella on both non-selective (TSA) and selective agars (BSA) and for E. coli O157:H7 on non-selective agar (TSA). […] Note: As BSA is a Salmonella-specific agar E. coli O157:H7 was not plated to BSA in this example.

E. coli O157:H7 N405-5-8 = test system: E. coli O157:H7 N405-5-8; design: species or system Escherichia coli; conditions: 1×10^6 CFU mL^−1 in TSB, 15 μL MIL
Description: as §1, §2, §3

E. coli O157:H7 N549-3-1 = test system: E. coli O157:H7 N549-3-1; design: species or system Escherichia coli; conditions: 1×10^6 CFU mL^−1 in TSB, 15 μL MIL
Description: as §1, §2, §3

E. coli O157:H7 N886-71 = test system: E. coli O157:H7 N886-71; design: species or system Escherichia coli; conditions: 1×10^6 CFU mL^−1 in TSB, 15 μL MIL
Description: as §1, §2, §3

[1] = test system: P. carotovorum pv. carotovorum; design: species or system Pectobacterium carotovorum; conditions: EF determined using Columbia Agar
Description: A universal schematic for MIL-based cell extraction is depicted in FIG. 7B. A 1 mL volume of diluted cell suspension was added to a flat-bottomed 4-mL screw cap glass vial. Fifteen microliters of either the Ni(II) or Dy(III) MIL was added and dispersed into microdroplets by vortex agitation for 30 s. The aqueous phase was decanted following dispersive extraction, and the MIL was subjected to a brief wash step using 1 mL of nuclease-free water (Integrated DNA Technologies, Coralville, IA, USA) to ensure adequate removal of loosely or incidentally bound cells. […]
as §2, with “The plates were then tilted at an approximately 80° angle for 15 min to allow the droplets to travel toward the opposite end of the plate. The plates were incubated for 24 h at 37° C. (TSA, VRBGA), for 48 h at 37° C. (BSA) or for 24 h at 37° C. (CA).” left out

With `CCCCCCCCCCCCCC[P+](CCCCCC)(CCCCCC)CCCCCC.O=C([CH-]C(=O)C(F)(F)F)C(F)(F)F.O=C([CH-]C(=O)C(F)(F)F)C(F)(F)F.O=C([CH-]C(=O)C(F)(F)F)C(F)(F)F.[Ni+2]` [Ni(II) MIL, [P66614^+][Ni(hfacac)3^−]] the “Enrichment Factor (TSA)” value (E. coli O157:H7 N336-4-1) was 3, the “Enrichment Factor (TSA)” value (E. coli O157:H7 N405-5-8) was 2 and the “Enrichment Factor (TSA)” value (E. coli O157:H7 N549-3-1) was 8. The “Enrichment Factor (TSA)” value (E. coli O157:H7 N886-71) was 4 and the “Enrichment Factor” value [1] was 24.
